Reference: US20070093505A1, “2,3-Substituted 5,6-diaryl-pyrazine derivatives as cb1 modulators” (ASTRAZENECA AB, priority 2003, published 2007)

Biological target: T1, hCB1 (Homo sapiens, UniProt P21554)
T1 construct: expressed in transfected cells
Test: [35S]-GTPγS binding assay on membranes from cells stably transfected with the CB1 gene, inhibition of agonist CP55940
Format: biochemical
Settings: EC80 concentration of agonist CP55940, membranes of CB1-transfected cells
From the text: Compounds of the present invention are active against the receptor product of the CB1 gene. The compounds of the present invention are active at the CB1 receptor (IC50<1 micromolar). Most preferred compounds have IC50<200 nanomolar. The affinity of the compounds of the invention for central cannabinoid receptors is demonstrable in methods described in Devane et al., Molecular Pharmacology, 1988, 34,605 or those described in WO01/70700 or EP 656354. Alternatively the assay may be performed as follows.
10 μg of membranes prepared from cells stably transfected with the CB1 gene were suspended in […] of 100 mM NaCl, 5 mM MgCl2, 1 mM EDTA, 50 mM HEPES (pH 7.4), 1 mM DTT, 0.1% BSA and 100 μM GDP. To this was added an EC80 concentration of agonist (CP55940), the required concentration of test compound and 0.1 μCi [^35S]-GTPγS. […] Filters were then covered with scintilant and counted for the amount of [^35S]-GTPγS retained by the filter.
Activity is measured in the absence of all ligands (minimum activity) or in the presence of an EC80 concentration of CP55940 (maximum activity). […] At various concentrations of novel ligand, activity is calculated as a percentage of the maximum activity and plotted. The data are fitted using the equation y=A+((B−A)/1+((C/x)UD)) and the IC50 value determined as the concentration required to give half maximal inhibition of GTPγS binding under the conditions used.

T1 sequence (P21554 whole entry): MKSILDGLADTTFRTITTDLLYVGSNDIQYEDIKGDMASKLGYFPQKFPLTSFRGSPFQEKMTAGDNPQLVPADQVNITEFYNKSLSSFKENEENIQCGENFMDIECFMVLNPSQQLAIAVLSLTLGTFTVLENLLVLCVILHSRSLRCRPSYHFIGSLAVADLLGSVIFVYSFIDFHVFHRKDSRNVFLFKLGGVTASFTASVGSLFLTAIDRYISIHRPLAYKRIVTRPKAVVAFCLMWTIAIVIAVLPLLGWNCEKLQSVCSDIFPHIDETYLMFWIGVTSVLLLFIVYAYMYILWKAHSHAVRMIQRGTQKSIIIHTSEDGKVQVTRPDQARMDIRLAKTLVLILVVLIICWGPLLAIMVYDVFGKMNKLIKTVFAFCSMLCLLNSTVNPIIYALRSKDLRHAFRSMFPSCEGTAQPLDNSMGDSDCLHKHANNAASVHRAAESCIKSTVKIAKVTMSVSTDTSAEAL

IC50: 1.8 nM
SMILES: CC1COC(c2nc(-c3ccc(Cl)cc3)c(-c3ccc(Cl)cc3)nc2C(=O)OC(C)(C)C)=N1 (stereo not shown) [Example 5, 5,6-bis(4-chlorophenyl)-3-(4-methyl-4,5-dihydrooxazol-2-yl)-pyrazine-2-carboxylic acid tert-butylester]
